Reference: the supplement of paper PMC11451515

Test system: SEM cells
Experiment: cell viability relative to DMSO control; higher = less cytotoxic
Conditions: 48 h
Method in brief: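 In 1536-well plates, 5 μl of leukemia cells were seeded per well: 500 cells/well for NOMO1 or SEM and 1000 cells/well for P12-Ichikawa. Each line had first been adapted for at least four passages in each medium. Library compounds in DMSO were pin-dosed at 11 threefold concentrations between 47 μM and 0.79 nM, and CellTiter-Glo One luminescence was read after 48 h at 37°C. Viability is a per-plate percentage relative to DMSO wells, with cell-free wells as background.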

[1] = HPLM + 10% dialyzed FBS, 0.000781 µM
[2] = HPLM + 10% dialyzed FBS, 0.00234 µM
[3] = HPLM + 10% dialyzed FBS, 0.00702 µM
[4] = HPLM + 10% dialyzed FBS, 0.0211 µM
[5] = HPLM + 10% dialyzed FBS, 0.0632 µM
[6] = HPLM + 10% dialyzed FBS, 0.19 µM
[7] = HPLM + 10% dialyzed FBS, 0.569 µM
[8] = HPLM + 10% dialyzed FBS, 1.71 µM
[9] = HPLM + 10% dialyzed FBS, 5.12 µM
[10] = HPLM + 10% dialyzed FBS, 15.4 µM
[11] = HPLM + 10% dialyzed FBS, 46.1 µM
[12] = RPMI 5 mM glucose + 10% FBS, 0.000781 µM
[13] = RPMI 5 mM glucose + 10% FBS, 0.00234 µM
[14] = RPMI 5 mM glucose + 10% FBS, 0.00702 µM
[15] = RPMI 5 mM glucose + 10% FBS, 0.0211 µM
[16] = RPMI 5 mM glucose + 10% FBS, 0.0632 µM
[17] = RPMI 5 mM glucose + 10% FBS, 0.19 µM
[18] = RPMI 5 mM glucose + 10% FBS, 0.569 µM
[19] = RPMI 5 mM glucose + 10% FBS, 1.71 µM
[20] = RPMI 5 mM glucose + 10% FBS, 5.12 µM
[21] = RPMI 5 mM glucose + 10% FBS, 15.4 µM
[22] = RPMI 5 mM glucose + 10% FBS, 46.1 µM
[23] = RPMI 5 mM glucose + 10% dialyzed FBS, 0.000781 µM
[24] = RPMI 5 mM glucose + 10% dialyzed FBS, 0.00234 µM
[25] = RPMI 5 mM glucose + 10% dialyzed FBS, 0.00702 µM
[26] = RPMI 5 mM glucose + 10% dialyzed FBS, 0.0211 µM
[27] = RPMI 5 mM glucose + 10% dialyzed FBS, 0.0632 µM
[28] = RPMI 5 mM glucose + 10% dialyzed FBS, 0.19 µM
[29] = RPMI 5 mM glucose + 10% dialyzed FBS, 0.569 µM
[30] = RPMI 5 mM glucose + 10% dialyzed FBS, 1.71 µM
[31] = RPMI 5 mM glucose + 10% dialyzed FBS, 5.12 µM
[32] = RPMI 5 mM glucose + 10% dialyzed FBS, 15.4 µM
[33] = RPMI 5 mM glucose + 10% dialyzed FBS, 46.1 µM

Row | Structure (SMILES) | cell viability [1] [%] | cell viability [2] [%] | cell viability [3] [%] | cell viability [4] [%] | cell viability [5] [%] | cell viability [6] [%] | cell viability [7] [%] | cell viability [8] [%] | cell viability [9] [%] | cell viability [10] [%] | cell viability [11] [%] | cell viability [12] [%] | cell viability [13] [%] | cell viability [14] [%] | cell viability [15] [%] | cell viability [16] [%] | cell viability [17] [%] | cell viability [18] [%] | cell viability [19] [%] | cell viability [20] [%] | cell viability [21] [%] | cell viability [22] [%] | cell viability [23] [%] | cell viability [24] [%] | cell viability [25] [%] | cell viability [26] [%] | cell viability [27] [%] | cell viability [28] [%] | cell viability [29] [%] | cell viability [30] [%] | cell viability [31] [%] | cell viability [32] [%] | cell viability [33] [%]
1 | CCOCC(O)COc1ccc(NC(=O)CC[S+](C)C)cc1 (stereo not given) | 88.2 | 77.9 | 93.7 | 90.5 | 94.2 | 93.5 | 106 | 91.9 | 109 | 107 | 84.8 | 77.9 | 92.1 | 85.9 | 80.9 | 85.2 | 103 | 95.3 | 76.7 | 106 | 104 | 72.2 | 76.2 | 88.3 | 82.6 | 73.5 | 91.2 | 96.8 | 95.9 | 102 | 107 | 112 | 72.1
2 | CC(C)c1c(C(=O)Nc2ccccc2)c(-c2ccccc2)c(-c2ccc(F)cc2)n1CC[C@@H](O)C[C@@H](O)CC(=O)[O-] | 108 | 117 | 103 | 113 | 112 | 102 | 93.2 | 104 | 99.8 | 75 | 69.9 | 81.9 | 92.3 | 110 | 120 | 103 | 86.3 | 98.3 | 97 | 88.6 | 70 | 45.1 | 99.6 | 109 | 104 | 106 | 93.4 | 68.5 | 104 | 97.8 | 93.3 | 80 | 60.9
3 | CC[C@H]1CN2CCc3cc(OC)c(OC)cc3[C@@H]2C[C@@H]1C[C@H]1NCCc2cc(OC)c(OC)cc21 | 40.6 | 88.1 | 71.5 | 73.9 | 89.7 | 38.6 | 11.8 | 10.1 | 7.04 | 7.04 | 6.06 | 46.7 | 94.3 | 67.6 | 79.9 | 90.9 | 61 | 14.7 | 11 | 8.47 | 9.05 | 7.9 | 35.8 | 99.2 | 74.9 | 96 | 113 | 67.8 | 22.2 | 13 | 9.62 | 9.49 | 8.97
4 | OCCN(CCO)c1nc(N2CCCCC2)c2nc(N(CCO)CCO)nc(N3CCCCC3)c2n1 | 108 | 111 | 109 | 109 | 118 | 119 | 117 | 114 | 99.3 | 89.9 | 82.4 | 120 | 111 | 118 | 120 | 127 | 124 | 111 | 104 | 111 | 103 | 72.4 | 128 | 120 | 113 | 104 | 121 | 102 | 143 | 131 | 116 | 106 | 67.8
5 | COc1ccc(-c2oc3cc(OC)ccc3c2C(=O)c2ccc(C#N)cc2)cc1 | 114 | 117 | 120 | 121 | 128 | 136 | 129 | 141 | 131 | 142 | 125 | 93.2 | 109 | 133 | 127 | 130 | 140 | 139 | 148 | 136 | 123 | 124 | 113 | 123 | 144 | 124 | 150 | 175 | 162 | 174 | 147 | 136 | 136
6 | Cn1cnc([N+](=O)[O-])c1Sc1ncnc2nc[nH]c12 | 83.9 | 90.7 | 99.3 | 88 | 101 | 100 | 95.7 | 83 | 103 | 24.4 | 20.8 | 87.3 | 86.8 | 93.4 | 108 | 88.2 | 92.1 | 100 | 43.5 | 23.8 | 24.9 | 15.4 | 90.3 | 82.8 | 84.6 | 71.8 | 88.9 | 89.1 | 77 | 32.1 | 28.7 | 20.7 | 14.3
7 | Clc1ccccc1C(c1ccccc1)(c1ccccc1)n1ccnc1 | 118 | 114 | 126 | 121 | 117 | 119 | 112 | 55.8 | 103 | 104 | 73.3 | 117 | 110 | 126 | 123 | 118 | 108 | 106 | 53.3 | 101 | 86.6 | 69.6 |  |  |  |  |  |  |  |  |  |  | 
